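Grown in 96-well plates, cells were treated for 48 hours with each compound at five concentrations. Insufficient inhibition: endpoint recorded as highest concentration tested. The concentration for full growth arrest is given as TGI.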

For one assay, the system named is SK-OV-3 ovarian. The experiment in a line: NCI tumour cell line growth inhibition, 48 h.
Molecule `NC1=NN(c2ccccc2)C(=O)C1C(=O)CCC(=O)Nc1cccc(Cl)c1` (stereo not drawn) gave a TGI of over 100 µM.

The molecule `N#C/C(=C/c1cccc(Oc2ccccc2)c1)c1ccccc1` displayed a TGI of over 100 µM.

The molecule `COc1cc(NS(=O)(=O)c2ccc(C)cc2)c2nccnc2c1` displayed a TGI of over 100 µM.

For a further assay, the system named is KM20L2 colon. The experiment in a line: NCI tumour cell line growth inhibition, 48 h.
`NC1=NN(c2ccccc2)C(=O)C1C(=O)CCC(=O)Nc1cccc(Cl)c1` (stereo not drawn): the TGI was over 100 µM.

On to `COc1cc(NS(=O)(=O)c2ccc(C)cc2)c2nccnc2c1`, for which the TGI was over 100 µM.

For the molecule `O=c1oc(-c2ccccc2)cn1-c1ccccc1`, the TGI was over 100 µM.

Another assay relates to CCRF-CEM leukemia. The experiment in a line: NCI tumour cell line growth inhibition, 48 h.
In turn, `NC1=NN(c2ccccc2)C(=O)C1C(=O)CCC(=O)Nc1cccc(Cl)c1` (stereo not drawn) yielded a TGI of over 100 µM.

For the molecule `N#C/C(=C/c1cccc(Oc2ccccc2)c1)c1ccccc1`, the TGI is over 100 µM.

`COc1cc(NS(=O)(=O)c2ccc(C)cc2)c2nccnc2c1` registered a TGI of 81.2 µM.

On to `O=c1oc(-c2ccccc2)cn1-c1ccccc1`, for which the TGI was over 100 µM.

For the next assay, the system named is XF 498 CNS. The experiment in a line: NCI tumour cell line growth inhibition, 48 h.
With `NC1=NN(c2ccccc2)C(=O)C1C(=O)CCC(=O)Nc1cccc(Cl)c1` (stereo not drawn), the TGI was over 100 µM.

`N#C/C(=C/c1cccc(Oc2ccccc2)c1)c1ccccc1` yielded a TGI of over 100 µM.

Take `COc1cc(NS(=O)(=O)c2ccc(C)cc2)c2nccnc2c1`: the TGI is over 100 µM.

`O=c1oc(-c2ccccc2)cn1-c1ccccc1` showed a TGI of over 100 µM.

A further assay has as its system NCI-H460 lung. The experiment in a line: NCI tumour cell line growth inhibition, 48 h.
With `NC1=NN(c2ccccc2)C(=O)C1C(=O)CCC(=O)Nc1cccc(Cl)c1` (stereo not drawn), the TGI was over 100 µM.

Consider `N#C/C(=C/c1cccc(Oc2ccccc2)c1)c1ccccc1`, for which the TGI is over 100 µM.

Molecule `COc1cc(NS(=O)(=O)c2ccc(C)cc2)c2nccnc2c1` yielded a TGI of over 100 µM.

`O=c1oc(-c2ccccc2)cn1-c1ccccc1` registered a TGI of over 100 µM.

In another assay the test system is NCI-H522 lung. The experiment in a line: NCI tumour cell line growth inhibition, 48 h.
For `NC1=NN(c2ccccc2)C(=O)C1C(=O)CCC(=O)Nc1cccc(Cl)c1` (stereo not drawn), the TGI is over 100 µM.

`N#C/C(=C/c1cccc(Oc2ccccc2)c1)c1ccccc1` registered a TGI of over 100 µM.

On to `COc1cc(NS(=O)(=O)c2ccc(C)cc2)c2nccnc2c1`, for which the TGI stood at 70.2 µM.

`O=c1oc(-c2ccccc2)cn1-c1ccccc1` showed a TGI of over 100 µM.

The subject of a further assay is HOP-62 NSCLC. The experiment in a line: NCI tumour cell line growth inhibition, 48 h.
The molecule `NC1=NN(c2ccccc2)C(=O)C1C(=O)CCC(=O)Nc1cccc(Cl)c1` (stereo not drawn) returned a TGI of over 100 µM.

The molecule `COc1cc(NS(=O)(=O)c2ccc(C)cc2)c2nccnc2c1` displayed a TGI of over 100 µM.

`O=c1oc(-c2ccccc2)cn1-c1ccccc1` registered a TGI of over 100 µM.

In another assay the test system is M19-MEL melanoma. The experiment in a line: NCI tumour cell line growth inhibition, 48 h.
As for `NC1=NN(c2ccccc2)C(=O)C1C(=O)CCC(=O)Nc1cccc(Cl)c1` (stereo not drawn), the TGI was over 100 µM.

For `N#C/C(=C/c1cccc(Oc2ccccc2)c1)c1ccccc1`, the TGI was over 100 µM.

Turning to `COc1cc(NS(=O)(=O)c2ccc(C)cc2)c2nccnc2c1`, the TGI is 55 µM.

A further assay deals with MALME-3M melanoma. The experiment in a line: NCI tumour cell line growth inhibition, 48 h.
As to `NC1=NN(c2ccccc2)C(=O)C1C(=O)CCC(=O)Nc1cccc(Cl)c1` (stereo not drawn), the TGI was over 100 µM.

For the molecule `N#C/C(=C/c1cccc(Oc2ccccc2)c1)c1ccccc1`, the TGI was over 100 µM.

`COc1cc(NS(=O)(=O)c2ccc(C)cc2)c2nccnc2c1` returned a TGI of over 100 µM.

The test system of a further assay is UACC-257 melanoma. The experiment in a line: NCI tumour cell line growth inhibition, 48 h.
In the case of `NC1=NN(c2ccccc2)C(=O)C1C(=O)CCC(=O)Nc1cccc(Cl)c1` (stereo not drawn), the TGI was over 100 µM.

Molecule `N#C/C(=C/c1cccc(Oc2ccccc2)c1)c1ccccc1` showed a TGI of over 100 µM.

`COc1cc(NS(=O)(=O)c2ccc(C)cc2)c2nccnc2c1` showed a TGI of over 100 µM.

A further assay has as its system A498 renal. The experiment in a line: NCI tumour cell line growth inhibition, 48 h.
The molecule `NC1=NN(c2ccccc2)C(=O)C1C(=O)CCC(=O)Nc1cccc(Cl)c1` (stereo not drawn) came in with a TGI of over 100 µM.

The molecule `N#C/C(=C/c1cccc(Oc2ccccc2)c1)c1ccccc1` yielded a TGI of over 100 µM.

The molecule `COc1cc(NS(=O)(=O)c2ccc(C)cc2)c2nccnc2c1` yielded a TGI of over 100 µM.

The next assay deals with ACHN renal. The experiment in a line: NCI tumour cell line growth inhibition, 48 h.
In turn, `NC1=NN(c2ccccc2)C(=O)C1C(=O)CCC(=O)Nc1cccc(Cl)c1` (stereo not drawn) showed a TGI of over 100 µM.

In turn, `N#C/C(=C/c1cccc(Oc2ccccc2)c1)c1ccccc1` had a TGI of over 100 µM.

Consider `COc1cc(NS(=O)(=O)c2ccc(C)cc2)c2nccnc2c1`, for which the TGI came out at 80.8 µM.

Another assay relates to SR leukemia. The experiment in a line: NCI tumour cell line growth inhibition, 48 h.
`N#C/C(=C/c1cccc(Oc2ccccc2)c1)c1ccccc1` gave a TGI of over 100 µM.

`COc1cc(NS(=O)(=O)c2ccc(C)cc2)c2nccnc2c1` returned a TGI of over 100 µM.

Another assay relates to COLO 205 colon. The experiment in a line: NCI tumour cell line growth inhibition, 48 h.
The molecule `NC1=NN(c2ccccc2)C(=O)C1C(=O)CCC(=O)Nc1cccc(Cl)c1` (stereo not drawn) yielded a TGI of over 100 µM.

Regarding `N#C/C(=C/c1cccc(Oc2ccccc2)c1)c1ccccc1`, the TGI is over 100 µM.

In turn, `COc1cc(NS(=O)(=O)c2ccc(C)cc2)c2nccnc2c1` returned a TGI of 90.1 µM.

The next assay has as its system OVCAR-8 ovarian. The experiment in a line: NCI tumour cell line growth inhibition, 48 h.
`NC1=NN(c2ccccc2)C(=O)C1C(=O)CCC(=O)Nc1cccc(Cl)c1` (stereo not drawn): the TGI was over 100 µM.

The molecule `N#C/C(=C/c1cccc(Oc2ccccc2)c1)c1ccccc1` returned a TGI of over 100 µM.

For the molecule `COc1cc(NS(=O)(=O)c2ccc(C)cc2)c2nccnc2c1`, the TGI is over 100 µM.

Source of the values: PubChem BioAssay (NCI).
